For one molecule, EC80 results are on record in patent EP4197333A1, “METHOD FOR C[…] RESISTANT PESTS & COMPOUNDS THEREFOR” (Syngenta Crop Protection AG, priority 2021, dated 2023).

In brackets after ≈: the same amount, converted by molar mass.

For this experiment, the system named is sensitive Plutella strain. Put plainly: Control of sensitive Plutella strain. As to conditions: 80% control, on average, read-out: concentration controlling the sensitive Plutella strain at 80%. It counts as in vivo.

On to `CNC(=O)c1cc(Cl)cc(C)c1NC(=O)c1cc(Br)nn1-c1ncccc1Cl` [chlorantraniliprole], for which the EC80 was determined as 0.25 µg/mL (≈ 0.517 µM).
